Patent US20130123326A1, “ALLOSTERIC BINDING COMPOUNDS” (REGION MIDTJYLLAND, priority 2009, published 2013)

Experiments:
[1] = target: T1, hSERT (Homo sapiens, UniProt P31645); assay: 5-HT uptake inhibition assay: allo-ligand potentiating effect on uptake inhibition by S-citalopram; type: cell-based; details: [3H]5-HT uptake, hSERT-transfected HEK-293-MSR cells; allosteric ligand in the 600 nM range
Procedure: Cell lines expressing the serotonin transporter constitute the most popular in vitro screening system for classical antidepressants, which will inhibit the transporter in uptake of serotonin. The inhibitory potency of the allosteric ligands is determined and expressed as an IC50 value in that a lowering of the IC50 values, when the concentration of the allosteric ligands increases, indicates an add-on inhibitory effect due to the presence of the allosteric ligand.
Transfection of HEK-293-MSR Cell Cultures
For transfections, 0.2 μg of pcDNA3 plasmid vector containing a hSERT cDNA insert and 0.4 μl of Fugene6 (Roche) were used per cm2 of plating area. Plasmid and Fugene6 were mixed with DMEM according to the manufacturer's recommendations. HEK-293-MSR cells were treated with trypsin, suspended in growth media and added to the Plasmid/Fugene6 mixture. Transfected cells were dispensed into white 96-well growth plates (Corning) or 150 mm cell culture discs at 60-80% confluence.
5-HT Uptake Inhibition Assays
Uptake assays were performed 40-50 hours after transfection. […] Cells were lysed in 50 μl MicroScint-20 (Packard), and the radiolabeled serotonin accumulated in the cells was quantified in a Packard TopCounter NXT microplate scintillation counter. Exact [^3H]5-HT reaction concentrations were determined in a Packard TRI-CARB® Liquid scintillation analyzer. […]

[2] = target: T1, hSERT; assay: Dissociation assay with [3H]-citalopram and hSERT membrane preparations; type: binding
Procedure: Dulbecco's modified Eagle's medium, fetal bovine serum, trypsin, and penicillin/streptomycin were purchased from Invitrogen. Cell culture flasks were from NUNC. MicroScint-20 scintillation mixture was from Packard. [^3H]-Citalopram (85 Ci/mmol) was a gift from H. Lundbeck A/S (Valby, Denmark). Fugene-6 transfection reagent was from Roche Molecular Biochemicals. All chemicals are commercially available. Stock solutions of the allosteric ligands were prepared as 100 mM in EtOH.
The pcDNA3 plasmid vector containing the hSERT gene was used for transfection.
17.5 μl Fugene-6 (Roche Molecular Biochemicals) were mixed with 280 μl Dulbecco's modified Eagle's medium, and incubated at room temperature for 5 minutes. 10 μg of hSERT plasmid were added and the mixture was further incubated at least 15 minutes. […] The cells were plated at 35% confluency in a 150 mm dish, and grown at 37° C. for 64 h. Prior to harvesting the dish was rinsed in PBS. Cells were harvested with a cell scraper in buffer 1 (50 mM Tris-base, 150 mM NaCl, 20 mM EDTA, pH 7.4). After centrifugation (3000 g at 4° C. for 10 mins), cells were suspended and homogenized with an IKA Ultra-Turrax from Rose Scientific Ltd (Edmonton, Alberta, Canada) for 20 s in buffer 1. Membranes were pelleted by ultracentrifugation (12 000 g at 4° C. for 15 min) and homogenization was repeated in buffer 1. Finally, after ultracentrifugation (12000 g, 4° C., 15 min) membranes were resuspended in 1 ml buffer 3 (50 mM Tris-base, 120 mM NaCl, 5 mM KCl, pH 7.4) and stored at −80° C.
Dissociation Assay with [^3H]-Citalopram and Membrane Preparations.
SERT-[^3H]-citalopram complex was formed by incubating hSERT membrane preparation and radioligand in buffer 3 during a 60 min incubation at 4° C. Radioligand was present at a concentration 10 times the Kd value. The time kinetic of dissociation was followed by adding 10 μL complex solution to 250 μL buffer 3 in 96-well plates and incubating subsequently for increasing time intervals at RT. Reactions were terminated by filtration through GF/C glass-fibre filters (Unifilter, Perkin Elmer Life Sciences), preincubated with 40 μl 0.5% polyethyleneimine, using a Pachard Bell cell harvester, and subsequently washed three times with water. Filters were soaked in 40 μl Microscint 20 scintillation liquid (Pachard Bell). Bound radioactivity was determined by direct counting of plates using a Packard Bell microplate scintillation counter. Dissociation curves were obtained by plotting residual binding vs. time of dissociation.
The concentrations of allosteric compound in the dissociation buffer range from 400-0.2 μM.
The relative off-rate is expressed as the off-rate of the radioligand at a given concentration of allosteric compound, normalized to the off-rate of radioligand in the absence of allosteric compound.
The maximum stabilization factor is defined as the estimated upper plateau of the sigmoidal response curve, and describes how many folds the off-rate of bound radioligand from SERT can be attenuated in the presence of increasing concentrations of allosteric compound in the dissociation buffer.

T1 sequence (P31645 whole entry): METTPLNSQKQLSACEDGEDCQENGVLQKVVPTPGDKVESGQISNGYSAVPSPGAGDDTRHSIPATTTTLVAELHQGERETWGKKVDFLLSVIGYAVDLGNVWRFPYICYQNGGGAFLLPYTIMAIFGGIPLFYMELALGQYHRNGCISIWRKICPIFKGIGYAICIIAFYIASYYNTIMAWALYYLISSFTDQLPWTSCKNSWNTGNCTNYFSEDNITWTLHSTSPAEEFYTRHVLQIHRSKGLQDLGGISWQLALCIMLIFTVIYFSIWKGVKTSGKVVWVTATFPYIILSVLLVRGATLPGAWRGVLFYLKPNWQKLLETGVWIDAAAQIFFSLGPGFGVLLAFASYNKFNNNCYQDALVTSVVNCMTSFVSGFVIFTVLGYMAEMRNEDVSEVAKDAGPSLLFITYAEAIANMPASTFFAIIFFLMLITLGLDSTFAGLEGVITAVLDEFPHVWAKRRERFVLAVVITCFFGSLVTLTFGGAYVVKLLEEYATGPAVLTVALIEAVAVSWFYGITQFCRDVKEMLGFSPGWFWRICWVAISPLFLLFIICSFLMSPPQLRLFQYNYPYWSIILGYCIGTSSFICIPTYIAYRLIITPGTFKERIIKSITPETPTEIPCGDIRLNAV

reduction of S-citalopram IC50 values (add-on effect) [1]: up to 2 fold
EC50 ([2]; concentration of allosteric compound inducing 50% attenuation of the off-rate of the radioligand from SERT, 10 μM fluoxetine in dissociation buffer, read-out: EC50): 700 nM
Max. Stability (maximum stabilization factor) ([2]; estimated upper plateau of sigmoidal response curve: how many folds the off-rate of bound radioligand from SERT can be attenuated, N/A = No activity): 27
Compound: N#CCSc1cccc2ccccc12 [Example 36, (Naphthalen-1-Ylsulfanyl)-Acetonitrile]
